# Experimental data as given in ChEMBL document CHEMBL1201862, “PubChem BioAssay data set” (2004).
#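 Cells were grown in 96-well plates and exposed to each compound for 48 hours at five concentrations; endpoints were interpolated linearly between bracketing concentrations, or set to the highest concentration if not reached. GI50 = concentration required for 50% inhibition of growth.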 Activity calls are given as the source filed them. Cut-off read from the data, not from the text of the source: active = GI50 up to about 1.1 µM and inactive = higher.
# Tests used:
# Assay in all cases: DTP human tumour cell line panel, 48 h
# [1] = test system: ACHN
# [2] = test system: MOLT-4
# [3] = test system: UO-31
# [4] = test system: UACC-62
# [5] = test system: DU-145
# [6] = test system: UACC-257
# [7] = test system: SK-MEL-2
# [8] = test system: HOP-18
# [9] = test system: XF498
# [10] = test system: SF-295
# [11] = test system: SK-OV-3
# [12] = test system: K562
# [13] = test system: DLD-1
# [14] = test system: RXF 393
# [15] = test system: SR
# [16] = test system: KM-20L2
# [17] = test system: BT-549
# [18] = test system: SNB-75
# [19] = test system: NCI/ADR-RES
# [20] = test system: HL-60
# [21] = test system: T47D
# [22] = test system: SW-620
# [23] = test system: RPMI-8226
# [24] = test system: NCI-H460
# [25] = test system: M14
# [26] = test system: HOP-62
# [27] = test system: NCI-H522
# [28] = test system: OVCAR-4
# [29] = test system: IGROV-1
# [30] = test system: NCI-H23
# [31] = test system: MDA-MB-435
# [32] = test system: HCC 2998
# [33] = test system: PC-3
# [34] = test system: SF-268
# [35] = test system: NCI-H226
# [36] = test system: MCF7
# [37] = test system: DMS-114
# [38] = test system: SK-MEL-28
# [39] = test system: U-251
# [40] = test system: OVCAR-8
# [41] = test system: SK-MEL-5
# [42] = test system: KM12
# [43] = test system: CAKI-1
# [44] = test system: SF-539
# [45] = test system: M19-MEL
# [46] = test system: EKVX
# [47] = test system: MDA-N
# [48] = test system: A498
# [49] = test system: HOP-92
# [50] = test system: DMS-273
# [51] = test system: MDA-MB-231
# [52] = test system: LOX IMVI
# [53] = test system: HCT-116
# [54] = test system: Malme-3M
# [55] = test system: HCT-15
# [56] = test system: SNB-78
# [57] = test system: CCRF-CEM
# [58] = test system: LXFL 529
# [59] = test system: COLO 205
# [60] = test system: HT-29
# [61] = test system: OVCAR-3
# [62] = test system: TK-10
# [63] = test system: OVCAR-5
# [64] = test system: 786-0
# [65] = test system: SNB-19
# [66] = test system: SN12C
# [67] = test system: Hs-578T
# [68] = test system: RXF 631
# [69] = test system: A549
smiles,measurement,setting,value
Nc1ccc2c(SCC(=O)Nc3ccccc3-c3ccccc3NC(=O)CSc3c4ccccc4nc4cc(N)ccc34)c3ccccc3nc2c1,GI50,[1],32.8 µM (inactive)
same,GI50,[2],3.35 µM (inactive)
same,GI50,[3],20 µM (inactive)
same,GI50,[4],18.9 µM (inactive)
same,GI50,[5],24.2 µM (inactive)
same,GI50,[6],24.4 µM (inactive)
same,GI50,[7],25.6 µM (inactive)
same,GI50,[8],26 µM (inactive)
same,GI50,[9],19.9 µM (inactive)
same,GI50,[10],31.5 µM (inactive)
same,GI50,[11],43.2 µM (inactive)
same,GI50,[12],2.71 µM (inactive)
same,GI50,[13],12.9 µM (inactive)
same,GI50,[14],34.9 µM (inactive)
same,GI50,[15],4.19 µM (inactive)
same,GI50,[16],33.1 µM (inactive)
same,GI50,[17],42 µM (inactive)
same,GI50,[18],38.5 µM (inactive)
same,GI50,[19],32.6 µM (inactive)
same,GI50,[20],3.21 µM (inactive)
same,GI50,[21],3.05 µM (inactive)
same,GI50,[22],29.6 µM (inactive)
same,GI50,[23],8.47 µM (inactive)
same,GI50,[24],29.2 µM (inactive)
same,GI50,[25],24.4 µM (inactive)
same,GI50,[26],33.7 µM (inactive)
same,GI50,[27],6.52 µM (inactive)
same,GI50,[28],29 µM (inactive)
same,GI50,[29],27 µM (inactive)
same,GI50,[30],18 µM (inactive)
same,GI50,[31],22.1 µM (inactive)
same,GI50,[32],36.1 µM (inactive)
same,GI50,[33],22.2 µM (inactive)
same,GI50,[34],37.1 µM (inactive)
same,GI50,[35],29.3 µM (inactive)
same,GI50,[36],12.4 µM (inactive)
same,GI50,[37],18.9 µM (inactive)
same,GI50,[38],21.8 µM (inactive)
same,GI50,[39],22 µM (inactive)
same,GI50,[40],26.3 µM (inactive)
same,GI50,[41],14.6 µM (inactive)
same,GI50,[42],19.5 µM (inactive)
same,GI50,[43],45.5 µM (inactive)
same,GI50,[44],32.1 µM (inactive)
same,GI50,[45],20.2 µM (inactive)
same,GI50,[46],39.6 µM (inactive)
same,GI50,[47],44.5 µM (inactive)
same,GI50,[48],29.9 µM (inactive)
same,GI50,[49],43.5 µM (inactive)
same,GI50,[50],33 µM (inactive)
same,GI50,[51],> 50.4 µM (inactive)
same,GI50,[52],22.9 µM (inactive)
same,GI50,[53],24.5 µM (inactive)
same,GI50,[54],22.9 µM (inactive)
same,GI50,[55],31.1 µM
same,GI50,[56],40.9 µM (inactive)
same,GI50,[57],2.79 µM (inactive)
same,GI50,[58],11.5 µM (inactive)
same,GI50,[59],14.2 µM (inactive)
same,GI50,[60],29.6 µM (inactive)
same,GI50,[61],22.2 µM (inactive)
same,GI50,[62],38 µM (inactive)
same,GI50,[63],70 µM (inactive)
same,GI50,[64],25.3 µM (inactive)
same,GI50,[65],18.9 µM (inactive)
same,GI50,[66],28.5 µM (inactive)
same,GI50,[67],> 59.3 µM (inactive)
same,GI50,[68],27.9 µM (inactive)
same,GI50,[69],41 µM (inactive)
COc1ccc(CNc2cc(OC)c(OC)c(OC)c2)cc1,GI50,[1],12.1 µM (inactive)
same,GI50,[2],3.98 µM (inactive)
same,GI50,[3],10.4 µM (inactive)
same,GI50,[4],3.32 µM (inactive)
same,GI50,[6],7.21 µM (inactive)
same,GI50,[7],2.72 µM (inactive)
same,GI50,[8],> 21.7 µM (inactive)
same,GI50,[9],21.3 µM (inactive)
same,GI50,[10],4.18 µM (inactive)
same,GI50,[11],5.65 µM (inactive)
same,GI50,[12],2.18 µM (inactive)
same,GI50,[13],5.66 µM (inactive)
same,GI50,[14],5.89 µM (inactive)
same,GI50,[15],3.25 µM (inactive)
same,GI50,[16],2.8 µM (inactive)
same,GI50,[18],5.57 µM (inactive)
same,GI50,[20],2.67 µM (inactive)
same,GI50,[22],3.31 µM (inactive)
same,GI50,[23],4.18 µM (inactive)
same,GI50,[24],3.47 µM (inactive)
same,GI50,[25],6.82 µM (inactive)
same,GI50,[26],5.57 µM (inactive)
same,GI50,[27],3.12 µM (inactive)
same,GI50,[28],12.4 µM (inactive)
same,GI50,[29],5.89 µM (inactive)
same,GI50,[30],6.08 µM (inactive)
same,GI50,[32],6.32 µM (inactive)
same,GI50,[34],3.43 µM (inactive)
same,GI50,[35],7.5 µM (inactive)
same,GI50,[37],3.01 µM (inactive)
same,GI50,[38],2.94 µM (inactive)
same,GI50,[39],3.78 µM (inactive)
same,GI50,[40],8.99 µM (inactive)
same,GI50,[41],3.35 µM (inactive)
same,GI50,[42],2.25 µM (inactive)
same,GI50,[43],4.36 µM (inactive)
same,GI50,[44],6.21 µM (inactive)
same,GI50,[45],4.57 µM (inactive)
same,GI50,[46],14.6 µM (inactive)
same,GI50,[48],9.08 µM (inactive)
same,GI50,[49],7.48 µM (inactive)
same,GI50,[50],2.09 µM (inactive)
same,GI50,[52],5.94 µM (inactive)
same,GI50,[53],3.37 µM (inactive)
same,GI50,[54],7.03 µM (inactive)
same,GI50,[55],3.52 µM
same,GI50,[56],4.62 µM (inactive)
same,GI50,[57],4.48 µM (inactive)
same,GI50,[58],7.64 µM (inactive)
same,GI50,[59],2.84 µM (inactive)
same,GI50,[60],3.66 µM (inactive)
same,GI50,[61],3.14 µM (inactive)
same,GI50,[63],> 25.3 µM (inactive)
same,GI50,[64],12.2 µM (inactive)
same,GI50,[65],6.85 µM (inactive)
same,GI50,[66],7.71 µM (inactive)
same,GI50,[68],3.47 µM (inactive)
same,GI50,[69],6.11 µM (inactive)
